The source of these data is patent US20250352555A1, “METHOD OF INCREASING IMMUNE CELL ACTIVATION AND/OR TREATING CANCER USING DIBENZOXAZEPINONES” (VASCULAR THERAPEUTICS PTY LTD, priority 2022, published 2025).

Where two headings read alike, the source gives them in different places.

Data set [1] has as its system resistant melanoma PDX. Particulars: resistant melanoma PDX model; cited from earlier work.
The subject of data set [2] is PD-1. Briefly: Flow cytometry with anti-PD-1 antibodies, Jurkat T cells. The format is cell-based, human. The note with it: same concentration range as BT2, 48 h (FIG. 17B). The protocol:
Flow cytometry with anti-PD-1 antibodies. Jurkat T cells were grown in 6 well plates containing RPMI 1640 and 10% FBS. After 24 h, the cells were treated with various concentrations of BT2 or BT3 for 48 h. Alternatively, the cells were incubated with 3 μM BT2 for various times. After treatment, the cells were washed with PBS, and centrifuged at 300×g for 5 min, and resuspended at 5×10^6 cells/ml. The cells were then incubated with BV421 conjugated mouse anti-human CD279 (PD-1) (BD, cat. no. 562516) or BV421 conjugated mouse IgG1 (BD, cat. no. 562438) for 45 min at 22° C. Cells were then washed twice with 1 ml of Stain Buffer, centrifuged and pellets were resuspended in 0.5 ml Stain Buffer. Stained cell suspensions were analyzed by flow cytometry using a BD FACSCanto (II).
Jurkat T cells express PD-1 (Yi et al., 2023) and are widely used as model human T cells (e.g., Repas et al., 2022). […] BT2's effects were not only dose-dependent but time-dependent. BT2 (3 μM) inhibited PD-1 levels by 50% after 24 h and by 80% after 48 h (FIG. 17C).
In general terms: Flow cytometry measures light scatter and fluorescence of single cells or particles in a stream.

Data set [3] deals with PD-1. Kind of data set: Western blotting for PD-1, Jurkat T cells. Format: cell-based, human. The note with it: 24 h; for PD-1 expression (Western blot): various concentrations. The protocol: (§1) Western blotting. Cells were treated with compounds and times indicated and total cell lysates were prepared in RIPA buffer. Lysates (10 μg) were resolved by SDS-PAGE and transferred to Immobilon-P polyvinylidene difluoride (PVDF) membranes (Millipore, USA).
(§2) Membranes were blocked with 5% skim milk and incubated with rabbit monoclonal anti-c-Jun (Abcam, cat. no. ab32137; mouse, rat and human reactive) antibody, rabbit monoclonal anti-PD-1 (Abcam, cat. no. ab214421) antibody, mouse monoclonal β-actin antibody (Sigma-Aldrich, cat. no. A5316), anti-phospho-SAPK/JNK (Thr^183/Tyr^185) (98F2) (CST, cat. no. 4671) antibody, anti-phospho-p44/42 MAPK (ERK1/2) (Thr^202/Tyr^204) (D13.14.4E) (CST, cat. no. 4370) antibody, anti-phospho-p38 MAPK (Thr^180/Tyr^182) (D3F9) (CST, cat. no. 4511) antibody, anti-SAPK/JNK antibody (CST, cat. no. 9252), anti-p44/42 MAPK (ERK1/2) (137F5) antibody (CST, cat. no. 4695), anti-p38 MAPK antibody (CST, cat. no. 9212), anti-DUSP8 antibody (Abcam, cat. no. ab198175) or anti-c-MAF (BLR045F) antibody (Abcam, cat. no. ab243901). This was followed by incubation with horseradish peroxidase-conjugated secondary goat anti-rabbit (DAKO, cat. no. P0448) or goat anti-mouse (DAKO, cat. no. P0447) antibody. Chemiluminescence was detected using the Western Lightning Chemiluminescence system (Thermo Scientific, USA) and ImageQuant™ LAS 4000 biomolecular imager (GE Healthcare Life Sciences, USA). Band intensity in images generated with the LAS 4000 was quantified using NIH Image J.
Background: A western blot detects proteins with antibodies after separation by electrophoresis.

Data set [4] has as its system non-small cell lung carcinoma. The note with it: non-small cell lung carcinoma-bearing mice; cited from earlier work.
The test system of data set [5] is p-ERK (Thr^202/Tyr^204). Kind of data set: Western blotting for p-ERK, A375 melanoma cells. The format is cell-based, human. Particulars: 10 or 100 nM, 24 h. The protocol:
as §1
as §2, with “4695), anti-p38 MAPK antibody (CST, cat. no. 9212), anti-DUSP8 antibody (Abcam, cat. no. ab198175) or anti-c-MAF (BLR045F) antibody (Abcam, cat. no. ab243901). This was followed by incubation with horseradish peroxidase-conjugated secondary goat anti-rabbit (DAKO, cat. no. P0448) or goat anti-mouse (DAKO, cat. no. P0447) antibody.” left out
(§3) The effect of BT2 on ERK phosphorylation (p-ERK) was evaluated in human melanoma cells given that MAP kinase activation is key to melanoma progression and the paucity of clinically approved ERK inhibitors. […]

Data set [6] relates to p-ERK (Thr^202/Tyr^204). Kind of data set: Western blotting for p-ERK, MeWo melanoma cells. Format: cell-based, human. Particulars: 10 or 100 nM, 24 h. Here is the method: as §1
as §2, with “4695), anti-p38 MAPK antibody (CST, cat. no. 9212), anti-DUSP8 antibody (Abcam, cat. no. ab198175) or anti-c-MAF (BLR045F) antibody (Abcam, cat. no. ab243901). This was followed by incubation with horseradish peroxidase-conjugated secondary goat anti-rabbit (DAKO, cat. no. P0448) or goat anti-mouse (DAKO, cat. no. P0447) antibody.” left out
as §3

Data set [7] concerns A375 cells. Kind of data set: Apoptosis, flow cytometry with Annexin V-FITC, A375. Format: cell-based, human. Particulars: 1 μM, 24 h. The protocol:
(§4) Flow cytometry with Annexin V-FITC. Cells were seeded into 6 well plates in normal culture medium containing 10% FBS. After culturing overnight, the cells were incubated in complete medium containing vehicle, BT2 or SCH772984 at 1 μM and left for 24 h. The culture medium was removed and the cells were washed with PBS. Accutase (Stem Cell Technologies, cat. no. 07920) was used to detach the cells. The cells were then washed and centrifuged at 300 g for 5 min and resuspended at 1×10^6 cells/ml in 500 μl of 1× binding buffer (Annexin V-FITC Apoptosis Staining/Detection Kit, Abcam, cat. no. ab14085). The cells were transferred to 12×75 mm tubes and annexin V-FITC/propidium iodide (PI) was added and incubated for 5 min at 22° C. protected from light. Stained cell suspensions were analyzed by flow cytometry using a BD LSRFortessa X20.
(§5) The morphology of A375 and MeWo cells exposed to 1 μM of BT2 or SCH772984 for 24 h was also assessed.

Data set [8] concerns MeWo cells. Briefly: Apoptosis, flow cytometry with Annexin V-FITC, MeWo. The note with it: 1 μM, 24 h. Format: cell-based, human. The protocol: as §4, §5
Data set [9] relates to advanced melanoma. Particulars: cited from earlier work; for 5 year overall survival: advanced melanoma.

With `Cc1cnc(NC2CCOCC2)nc1-n1cnc(C(=O)N[C@H](CN)c2cc(F)cc(Cl)c2)c1` [ASN007], the efficacy entry in data set [1] was “demonstrates efficacy”.
For the molecule `CCN1C(=O)c2cc(N)ccc2Oc2ccccc21` [BT3, 2-amino-10-ethyldibenzo[b,f][1,4]oxazepin-11(10H)-one], the “effect on PD-1 expression” value in [2] was “no inhibitory effect”.
On to `COc1cccc(-c2cc(=O)c3ccccc3o2)c1N` [PD98059], for which the “PD-1 expression (Western blot)” value in data set [3] is reported as “no effect on PD-1 expression”.
With `O=C(NOC[C@H](O)CO)c1ccc(F)c(F)c1Nc1ccc(I)cc1F` [PD0325901], the “effect on efficacy of anti-PD-1 antibodies” value in [4] is given as “can enhance the efficacy of anti-PD-1 antibodies”.
Turning to `O=C(Nc1ccc2[nH]nc(-c3ccncc3)c2c1)[C@@H]1CCN(CC(=O)N2CCN(c3ccc(-c4ncccn4)cc3)CC2)C1` [SCH772984, reference compound], the “ERK phosphorylation (p-ERK, Western blot)” value in data set [5] and in data set [6] was “suppressed ERK phosphorylation” throughout. Moreover, the “apoptosis (Annexin V-FITC+ PI−)” value in data set [7] and in [8] was “no or less potent pro-apoptotic effects” in each case. In data set [3] (Western blot), the “potency in suppressing PD-1 expression, fold less potent than BT2” value is reported as greater than 10 fold. In addition, the “PD-1 expression (Western blot)” value in [3] is listed as “suppressed PD-1 expression”.
With pembrolizumab: anti-PD-1 antibody, the “patients with treatment-related adverse events” value in data set [9] (advanced melanoma patients) is 86%. Also, the entries for the “5 year overall survival” value in data set [9] (all patients) and in data set [9] (treatment-naive patients) were 34% and 41%, respectively.
